{
  "source": "PubChem BioAssay AID1417",
  "about": "(Emory University Molecular Libraries Screening Center, 2008)",
  "data": [
    {"biological_target": "Induced myeloid leukemia cell differentiation protein Mcl-1 (Homo sapiens) (UniProt Q07820)", "sequence (Q07820 whole entry, looked up)": "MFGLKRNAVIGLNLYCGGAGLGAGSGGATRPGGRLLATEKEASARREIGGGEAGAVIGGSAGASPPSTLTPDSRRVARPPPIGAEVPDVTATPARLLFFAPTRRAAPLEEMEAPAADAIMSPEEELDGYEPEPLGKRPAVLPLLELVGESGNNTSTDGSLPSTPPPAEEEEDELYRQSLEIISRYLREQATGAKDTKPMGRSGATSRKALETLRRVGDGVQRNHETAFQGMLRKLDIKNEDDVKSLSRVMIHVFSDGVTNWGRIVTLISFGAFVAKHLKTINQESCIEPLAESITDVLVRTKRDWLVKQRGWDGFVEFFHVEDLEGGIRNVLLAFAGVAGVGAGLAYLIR", "assay": "Mcl-1 Noxa peptide disruption concentration-response – biochemical, TR-FRET, dose response (AID 1417)", "conditions": "Mcl-1/Noxa peptide interaction, cell-free TR-FRET (terbium/rhodamine), 2 h; measured here: absolute IC50", "units": {"IC50": "µM"}, "values": [
      {"smiles": "COc1ccc(N/C=C2\\C(=O)CCc3c2oc2cc(Cl)c(O)c(Cl)c32)cc1", "IC50": 5.07},
      {"smiles": "Cc1[nH]n(-c2ncc(-c3ccc(Cl)cc3)s2)c(=O)c1C(c1ccc(Cl)cc1)C(C#N)C#N", "note": "(stereo not given)", "IC50": 1.67},
      {"smiles": "O=C1Nc2ccccc2/C1=N/N=C/c1ccc(-c2ccc([N+](=O)[O-])cc2)o1", "IC50": "< 0.4"},
      {"smiles": "COc1ccc(O)c(C(=O)c2cc(SCC(=O)O)c3nc4sc5c(c4c(=O)n3c2)CCCC5)c1", "IC50": "< 0.4"},
      {"smiles": "O=C(O)CSc1cc(NS(=O)(=O)c2cccc([N+](=O)[O-])c2)c2ccccc2c1O", "IC50": "< 0.4"},
      {"smiles": "CC(=O)c1ccc(NC(=O)CC2Nc3cccc4cccc(c34)NC2=O)cc1", "note": "(stereo not given)", "IC50": 3.62},
      {"smiles": "CN(C(=O)COC(=O)c1cc(-c2ccco2)nc2ccccc12)C1CCS(=O)(=O)C1", "note": "(stereo not given)", "IC50": "< 0.4"},
      {"smiles": "Cc1cccc(NC2=C(NC(=O)c3ccccc3)C(=O)c3ccccc3C2=O)c1", "IC50": 3.41},
      {"smiles": "NC(=O)c1nn(CC(=O)Nc2ccc3c(c2)OCO3)cc1[N+](=O)[O-]", "IC50": "> 54"},
      {"smiles": "Cc1cc(N=Cc2c(O)ccc3cc(Br)ccc23)no1", "IC50": 53.5},
      {"smiles": "COc1ccc(-c2csc(/C(C#N)=C\\c3ccc(O)c([N+](=O)[O-])c3)n2)cc1OC", "IC50": 4.75},
      {"smiles": "O=C(COC(=O)Cn1cnc2ccccc21)Nc1ccc2c(c1)C(=O)c1ccccc1C2=O", "IC50": 2.59},
      {"smiles": "Oc1ccc(/C=N/NC(=S)Nc2cccnc2)c(O)c1O", "IC50": "< 0.4"},
      {"smiles": "O=C(CCN1C(=O)S/C(=C\\c2ccccc2)C1=O)Nc1ccc(S(=O)(=O)Nc2nccs2)cc1", "IC50": 7.65},
      {"smiles": "O=c1c2ccccc2sn1-c1cc(S(=O)(=O)N2CCOCC2)ccc1N1CCOCC1", "IC50": "< 0.4"},
      {"smiles": "O=[N+]([O-])c1ccc(-c2cn(-c3ccc(Cl)cc3)c(=S)[nH]2)cc1", "IC50": 7.17},
      {"smiles": "O=C(CNc1ccc2ccccc2c1)N/N=C/C=C/c1cccc([N+](=O)[O-])c1", "IC50": 7.27},
      {"smiles": "O=S(=O)(c1ccc2nc(-c3ccco3)c(-c3ccco3)nc2c1)N1CCOCC1", "IC50": 8.41},
      {"smiles": "Cc1cccc(-c2nc(Nc3ccc(N4CCOCC4)cc3)c3ccccc3n2)c1", "IC50": "< 0.4"},
      {"smiles": "O=C1C(Cl)=C(Nc2ccc3cn[nH]c3c2)C(=O)c2ccccc21", "IC50": "< 0.4"},
      {"smiles": "[O-][n+]1onc2c1CCC(=N/O)/C2=N\\Nc1ccccc1", "IC50": 1.06},
      {"smiles": "CN(C)c1ccc(NC(=O)/C=C/c2ccccc2Cl)cc1", "IC50": "< 0.4"},
      {"smiles": "Cc1cc(=O)oc2cc(OCc3ccc(C(=O)OCC(=O)Nc4ccc(N(C)C)cc4)cc3)ccc12", "IC50": "< 0.4"},
      {"smiles": "CCN(CC)c1ccc(/C=N/N2CCN(Cc3ccccc3)CC2)cc1", "IC50": "> 54"},
      {"smiles": "CCOC(=O)c1c(NC(C)=O)sc2c(O)c(Br)cc(Br)c12", "IC50": 8.58},
      {"smiles": "O=C(OCC1O[C@@H](OC(=O)c2cc(O)c(O)c(O)c2)[C@@H](OC(=O)c2cc(O)c(O)c(O)c2)[C@@H](OC(=O)c2cc(O)c(O)c(O)c2)[C@@H]1OC(=O)c1cc(O)c(O)c(O)c1)c1cc(O)c(O)c(O)c1", "note": "(stereo not given in full)", "IC50": "< 0.4"},
      {"smiles": "CCn1c(SCc2nc3sc(C(=O)O)c(C)c3c(=O)[nH]2)nc2ccccc21", "IC50": 3.32},
      {"smiles": "COc1ccc(/C=N/NC(=O)c2ccc(O)cc2O)cc1CSc1ccccn1", "IC50": 2.48},
      {"smiles": "O=C(N=Nc1c(O)[nH]c2ccc([N+](=O)[O-])cc12)c1cc(-c2ccccc2Cl)nc2ccccc12", "IC50": "< 0.4"},
      {"smiles": "NC(=O)c1c(NC(=O)CSc2nnc(-c3ccco3)n2-c2ccccc2)sc2c1CCC2", "IC50": 5.75},
      {"smiles": "N#Cc1c2nc3ccccc3nc2n2cc(NC(=O)c3ccc(F)cc3)ccc12", "IC50": "< 0.4"},
      {"smiles": "CN(C)c1ccc(C(CNC(=O)c2ccccc2Br)c2c[nH]c3ccccc23)cc1", "note": "(stereo not given)", "IC50": "> 54"},
      {"smiles": "O=C(O)CC(CCc1ccccc1)OC1OC(CO)C(O)C(O)C1O", "note": "(stereo not given)", "IC50": "< 0.4"},
      {"smiles": "COc1cc(/C=C/C(=O)OCC(=O)Nc2cc(C)c(C)cc2[N+](=O)[O-])ccc1O", "IC50": 2.4},
      {"smiles": "Fc1cccc(NC(=S)NNc2c3ccccc3nc3ccccc23)c1", "IC50": 3.31},
      {"smiles": "COc1ccc(-c2csc(Nc3ccccc3)n2)cc1", "IC50": "> 54"},
      {"smiles": "Oc1[nH]c2ccccc2c1N=Nc1nc2ccccc2s1", "IC50": 5.01},
      {"smiles": "Cc1nc2c(c(=O)n1CCC1=CCCCC1)c1nc3ccccc3nc1n2/N=C/c1ccco1", "IC50": 4.44},
      {"smiles": "O=C(CCN1CCN(c2ccccc2)CC1)N/N=C/c1ccc(O)c(O)c1O", "IC50": "< 0.4"},
      {"smiles": "OCCNc1nc(Nc2ccccc2)nc(Nc2ccccc2)n1", "IC50": "> 54"},
      {"smiles": "Cc1cccn2c(=O)c3cc(C(=O)NCc4ccco4)c(=N)n(CCc4ccccc4)c3nc12", "IC50": 3.15},
      {"smiles": "CCN1C(=O)/C(=C/c2ccc3c(c2)CCN3CCCCl)C(=O)NC1=S", "IC50": 2.57},
      {"smiles": "Cc1cc(NC(=O)Cc2cccs2)no1", "IC50": "< 0.4"},
      {"smiles": "COc1ccc(-n2cccc2/C=C2\\C(=N)N3N=C(c4ccco4)SC3=NC2=O)cc1", "IC50": "< 0.4"},
      {"smiles": "CCC1CSC(Nc2ccc(C(=O)/C=C/c3cccc(C)c3)cc2)=N1", "note": "(stereo not given)", "IC50": "< 0.4"},
      {"smiles": "O=C(CSc1nnc(SCc2ccccc2)s1)N/N=C/C=C/c1ccco1", "IC50": 4.87},
      {"smiles": "O=[N+]([O-])c1c(NCCO)cc(Sc2nc3ccccc3s2)c2nonc12", "IC50": "> 54"},
      {"smiles": "Cc1cc(/C=N/n2c(COc3ccccc3C)nc3ccccc3c2=O)c(O)c([N+](=O)[O-])c1", "IC50": 4.86},
      {"smiles": "Cc1oc(-c2ccc(Cl)cc2)cc1-c1nn2c(-c3ccoc3C)nnc2s1", "IC50": "> 54"},
      {"smiles": "CCN(CC)c1ccc(NC(=O)c2ccccc2OCC(=O)OC)cc1", "IC50": "> 54"},
      {"smiles": "CSc1ccc(/C=N/Nc2cccc(C(=O)O)c2)cc1", "IC50": 0.893},
      {"smiles": "O=C(NN1C(=O)/C(=C/C=C/c2ccco2)SC1=S)c1ccccc1O", "IC50": 1.01},
      {"smiles": "O=C(Nc1cccc(S(=O)(=O)N2CCOCC2)c1)c1c2c(nc3ccccc13)CCC2", "IC50": 3.08},
      {"smiles": "O=C(Nc1ccc(N2CCCC2)cc1)c1ccc(Br)o1", "IC50": 1.06},
      {"smiles": "CCCOc1ccc(C(=O)Nc2ccc(N(C)C)cc2)cc1", "IC50": "> 54"},
      {"smiles": "CCOC(=O)c1sc(NC(=O)Nc2ccc(Cl)cc2)cc1C", "IC50": 4.11},
      {"smiles": "COc1ccc(C(c2c(O)cc(C)oc2=O)c2c(O)cc(C)oc2=O)cc1", "IC50": "> 54"},
      {"smiles": "COC(=O)CSc1ncnc2c1sc1nc(-c3ccco3)c3c(c12)CC(C)(C)OC3", "IC50": 3.55},
      {"smiles": "CCN(CC)S(=O)(=O)c1cc(NC(=O)Cn2ncc(Cl)c(Cl)c2=O)ccc1C", "IC50": 3.26},
      {"smiles": "CCc1ccc(NC(=O)N(CCN2CCOCC2)Cc2ccc3c(c2)CCCN3CC)cc1", "IC50": "> 54"},
      {"smiles": "Cc1ccc(-c2nc3c(c(=O)[nH]c(=O)n3Cc3ccccc3)n2C)o1", "IC50": "< 0.4"},
      {"smiles": "Cc1ccc(N2CC(C(=O)Nc3ccc(N(C)C)cc3)CC2=O)cc1C", "note": "(stereo not given)", "IC50": "> 54"},
      {"smiles": "COc1ccc2nc(S(=O)Cc3ncc(C)c(OC)c3C)[nH]c2c1", "note": "(stereo not given)", "IC50": "< 0.4"},
      {"smiles": "O=C(ONc1ccc(N=NC(=O)c2ccccc2O)cc1)c1ccccc1", "IC50": 13},
      {"smiles": "Oc1c(Cl)cc(Cl)cc1/C=C/c1ccc2cccc(O)c2n1", "IC50": "> 54"},
      {"smiles": "Cc1ccc(-c2cc(C(=O)OCC(=O)N(C)C3CCS(=O)(=O)C3)c3ccccc3n2)o1", "note": "(stereo not given)", "IC50": 2.98},
      {"smiles": "Cc1ccc2nc(/C(C#N)=C/c3ccc(-c4cccc([N+](=O)[O-])c4)o3)[nH]c2c1", "IC50": 1.68},
      {"smiles": "NC(=S)n1[nH]c(-c2ccc([N+](=O)[O-])cc2)c(N=Nc2ccccc2[N+](=O)[O-])c1=O", "IC50": "< 0.4"},
      {"smiles": "O=C(Nc1ccc([N+](=O)[O-])cc1)Nc1ccc(N2CCOCC2)c2nonc12", "IC50": 4.63},
      {"smiles": "C=CCn1c(N2CCCCCC2)nc2c1c(=O)n(C)c(=O)n2C", "IC50": "> 54"},
      {"smiles": "O=c1/c(=C\\c2cc([N+](=O)[O-])cc([N+](=O)[O-])c2O)sc2nc3ccccc3n12", "IC50": "< 0.4"},
      {"smiles": "CCN(c1ccc(NC(=O)COC(=O)c2cccs2)cc1)C(C)C", "IC50": "> 54"},
      {"smiles": "Cc1c2c(=O)n(-c3nc4ccccc4s3)nc-2cc(O)n1Cc1ccccc1", "IC50": 5.62},
      {"smiles": "N/C(=N\\N=C/c1ccc(-c2ccc(O)c(C(=O)O)c2)o1)N[N+](=O)[O-]", "IC50": 2.65},
      {"smiles": "Cc1cc2ncn(/N=C/c3ccc([N+](=O)[O-])s3)c2cc1C", "IC50": 5.32}
    ]}
  ]
}
